Laboratory results published in patent US20250375420A1 (ZYLORION HEALTH INC., priority 2022, published 2025).
Read-outs that look alike come from different tables or passages of the source.

Key:
[1] = Dynamic vapor sorption (DVS) analysis; assay type: physicochemical
Procedure: Moisture sorption isotherms were collected on a DVS Adventure system from Surface Measurement Systems (London, UK). Sample size was circa 10 mg of solid material. A full sorption and desorption isotherm was recorded by varying the relative humidity from 40-95-0-40% in steps of 10% at a constant temperature of 25° C. Weight equilibration per step was set at dm/dt of 0.002%/min. Afterwards the sample was measured by HT-XRPD.

h5HT2a [2] = target: T1, h5HT2a (Homo sapiens, UniProt P28223); assay: cell-based; assay type: cell-based; design: expressed in transfected cells; host or cells: CHO-K1
T1 sequence (P28223 whole entry): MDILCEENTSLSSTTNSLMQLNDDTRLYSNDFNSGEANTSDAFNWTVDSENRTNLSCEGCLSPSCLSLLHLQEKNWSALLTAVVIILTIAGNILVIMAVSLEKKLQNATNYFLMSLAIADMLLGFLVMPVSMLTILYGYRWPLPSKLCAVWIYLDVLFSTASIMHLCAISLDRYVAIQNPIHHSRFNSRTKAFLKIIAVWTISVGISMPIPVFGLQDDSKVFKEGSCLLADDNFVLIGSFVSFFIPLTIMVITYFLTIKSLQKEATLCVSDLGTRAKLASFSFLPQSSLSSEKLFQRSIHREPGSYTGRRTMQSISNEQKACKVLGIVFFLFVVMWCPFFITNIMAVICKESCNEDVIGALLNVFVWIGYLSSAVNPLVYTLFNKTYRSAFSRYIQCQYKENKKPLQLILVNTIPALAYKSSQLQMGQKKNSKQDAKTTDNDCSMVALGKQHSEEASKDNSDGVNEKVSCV
Procedure: Compound activity was quantified as βarrestin2 recruitment from CHO-K1 cells expressing h5HT2a and treated with 0.1 nM-10 μM compounds.
CHO-K1 cells express h5HT2a-smBIT and βarrestin2-lgBiT fusion proteins. When h5HT2a and βarrestin2 come into contact with one another the smBIT and IgBIT peptides complement each other to produce a complete NanoBit luciferase enzyme. When complete, the enzyme is able to catalyze the breakdown of the molecule coelenterazine to produce light. Emitted light levels are proportional to interactions between h5HT2a and βarrestin2. CHO-K1 cells were treated with between 0.1 nM-10 μM of each compound for 2 h, during which period chemiluminescence is recorded. Area under the curve data for cumulative chemiluminescence are then fit to a three-parameter non-linear regression to determine potency (EC50) and efficacy (Emax). Data were fit to a three-parameter non-linear regression in GraphPad (v. 9). n=3-13 independent experiments performed in duplicate or triplicate. Data are expressed as mean±SEM.

h5HT2a [3] = target: T1, h5HT2a; assay: cell-based; assay type: cell-based; design: expressed in transfected cells; host or cells: CHO-K1 (AequoScreen line with aequorin in A1; membranes of stably expressing CHO-K1 cells in A3)
Procedure: AequoScreen CHO-K1 cells stably-expressing h5HT2a contain an aequorin protein that, when bound to Ca^2+, is able to catalyze the breakdown of the molecule coelenterazine to produce light. Emitted light levels are proportional to endoplasmic reticulum Ca^2+ release. CHO-K1 cells were treated with between 0.1 nM-10 μM of each compound for 1 min before chemiluminescence is recorded. Resulting data are then fit to a three parameter non-linear regression to determine potency (EC50) and efficacy (Emax). Data were fit to a three-parameter non-linear regression in GraphPad (v. 9). n=3-29 independent experiments performed in duplicate or triplicate. Data are expressed as mean±SEM.

C57BL/6 mice [4] = assay: Head-twitch response (HTR); assay type: in vivo, mouse; conditions: i.p.
Procedure: C57BL/6 mice were treated with increasing doses of compounds as indicated via i.p. injection. Mice were placed inside a clear cylinder and video recorded for 10 min immediately after compound administration. Head-twitch was recorded by an individual blinded to treatment as a lateral, rhythmic shaking of the head distinct from grooming or vertical head nod. Data were plotted in GraphPad (v. 9). n≥3 animals per dose. Data are expressed as mean±SEM.

C57BL/6 mice [5] = assay: Body temperature relative to baseline (rectal thermometer); assay type: in vivo, mouse; conditions: i.p., increasing doses, 20 min after administration
Procedure: (§1) Compound activity was quantified in C57BL/6 mice for catalepsy (10 min) (top), nociception in the tail flick latency test (15 min) (middle), and body temperature relative to baseline (20 min) (bottom).
(§2) C57BL/6 mice were treated with increasing doses of compounds as indicated via i.p. injection. Tests were as follows: Body temperature is taken before administration of the first dose of compound for baseline. Catalepsy—the bar holding assay, 10 min after compound administration. Mice are placed such that their forepaws clasp a 0.7 cm ring clamp positioned 4.5 cm above the surface of the testing space. The length of time the ring is held is recorded (sec). The trial is ended if the mouse turns its head or body, or makes 3 consecutive escape attempts, to a maximum of 60 sec. Nociception—15 min after compound administration the mouse's tail is placed in 52° C. water. Latency to remove the tail from water is recorded to a maximum of 20 sec. Body temperature—rectal thermometer 20 min after compound administration. Data were plotted in GraphPad (v. 9). n≥6 animals per dose. Data are expressed as mean±SEM.

C57BL/6 mice [6] = assay: Elevated plus maze (EPM); assay type: in vivo, mouse; conditions: 3 mg/kg i.p., 30 min, preliminary
Procedure: Representative movement traces from Ethovision in male C57BL/6 mice (top, right).
C57BL/6 mice were treated 3 mg/kg of compounds via i.p. injection. Mice are placed in the EPM 30 min after compound administration. The EPM measures 1 m×1 m and the test lasts for 5 min. Total distance travelled, velocity, arm entries, and time in each arm are recorded and analyzed using EthoVision XT (Noldus, v. 17). Data were plotted in GraphPad (v. 9). n=3-5 animals per treatment. Data are expressed as mean±SEM.

C57BL/6 mice [7] = assay: Nociception, tail flick latency test (52° C. water); assay type: in vivo, mouse; conditions: i.p., increasing doses, 15 min after administration
Procedure: as §1, §2

C57BL/6 mice [8] = assay: Open field task (OFT); assay type: in vivo, mouse; conditions: i.p., 30 min after administration; significant for movement and velocity, not time in center, at 7 or 10 mg/kg
Procedure: C57BL/6 mice were treated with increasing doses of compounds as indicated via i.p. injection. Mice are placed in the open field 30 min after compound administration. The open field measures 1 m×1 m and the test lasts for 5 min. Total distance travelled, velocity, and time spent in the central quadrant of the field are recorded and analyzed using Etho Vision XT (Noldus, v. 17). Data were plotted in GraphPad (v. 9). n≥4 animals per dose. Data are expressed as mean±SEM.

C57BL/6 mice [9] = assay: Catalepsy, bar holding assay; assay type: in vivo, mouse; conditions: i.p., increasing doses, 10 min after administration
Procedure: as §1, §2

h5HT2a [10] = target: T1, h5HT2a; assay: biochemical; assay type: binding; design: expressed in transfected cells; host or cells: CHO-K1 (AequoScreen line with aequorin in A1; membranes of stably expressing CHO-K1 cells in A3); conditions: 1 nM [3H]ketanserin, 0.1 nM-10 μM compound, 2 h
Procedure: CHO-K1 cells stably-expressing h5HT2a are grown, collected, and frozen at −80° C. Cells are thawed as needed and subjected to pressure cavitation using a Dounce homogenizer to rupture cell membranes. Cell membranes are then collected by subjecting cell lysates to high-speed centrifugation at 20,000×g for 30 min at 4° C. Homogenization and centrifugation are repeated to enrich the sample for receptor-containing cell membranes. CHO-K1 cell membranes are the co-incubated with 1 nM [^3H]ketanserin and between 0.1 nM-10 μM of each compound for 2 h. Samples are then pipetted onto filter paper before being rinsed and washed by vacuum filtration three times, dried, and incubated overnight in scintillation fluid. […] Resulting data are then fit to a three-parameter non-linear regression to determine affinity (Ki). […] Data are expressed as mean±SEM.

[11] = βarrestin2 recruitment, CHO-K1 h5HT2a

## CCc1cc(/C(C)=N/OCc2ccc(C3CCCCC3)c(C(F)(F)F)c2)ccc1CN1CC(C(=O)O)C1.CCc1cc(/C(C)=N/OCc2ccc(C3CCCCC3)c(C(F)(F)F)c2)ccc1CN1CC(C(=O)O)C1.O=C(O)/C=C/C(=O)O [Crystalline Form A]
[1]; DVS, 25° C.
  hygroscopicity according to the EP hygroscopicity classification: moderately hygroscopic
  total mass difference between 0-95% RH: 3.6%
[1]; solid recovered after DVS
  physical stability after the sorption-desorption cycle (XRPD): physically stable

## CCN(CC)C(=O)[C@@H]1C=C2c3cccc4[nH]cc(c34)C[C@H]2N(C)C1 [LSD]
h5HT2a [2]
  Emax (%) ± S.E.M.: 100 ± 16%
h5HT2a [3]
  Emax (%) ± S.E.M.: 100 ± 9.9%
C57BL/6 mice [4]; at several tested doses
  time of peak head-twitch effect post-compound administration: around 7 min

## CNCCc1c[nH]c2cccc(O)c12 [Norpsilocin]
h5HT2a [2]; [11]
  Emax (%) ± S.E.M.: 2.9 ± 27%
h5HT2a [3]; Ca2+ release, CHO-K1 h5HT2a
  Emax (%) ± S.E.M.: 45 ± 14%

## CN(C)CCc1c[nH]c2cccc(O)c12 [Psilocin]
C57BL/6 mice [5]
  body temperature: dose-dependent hypothermia
h5HT2a [2]; comparison of the two h5HT2a assays
  potency in Ca2+ release assay compared with βarrestin2 recruitment assay: greater in the Ca^2+ release assay than the βarrestin2 recruitment assay
h5HT2a [2]; h5HT2a-dependent βarrestin2 recruitment
  βarrestin2 recruitment activity (in words): activator of βarrestin2 recruitment
h5HT2a [2]; [11]
  Emax: 89 ± 22%
C57BL/6 mice [6]; p=0.029, unpaired t-test
  closed arm time: significantly reduces closed arm time
C57BL/6 mice [6]; p=0.12, unpaired t-test
  open arm time: but not open arm time
C57BL/6 mice [6]
  arm entries: no significant differences in arm entries
  overall movement and velocity in EPM: trend toward reduced overall movement and velocity
C57BL/6 mice [7]
  pain perception (nociception): significantly reduces pain perception peaking at 1 mg/kg
h5HT2a [3]; Ca2+ release, CHO-K1 h5HT2a
  Emax: 89 ± 11%
h5HT2a [3]; h5HT2a-dependent Ca2+ release
  Ca2+ release activity (in words): potent activator of Ca^2+ release
C57BL/6 mice [8]
  movement, velocity and time in the center of the open field: dose-dependent decrease in movement, velocity, and time in the center of the open field
C57BL/6 mice [9]
  catalepsy: do not produce catalepsy
C57BL/6 mice [4]; 0-10 min after administration
  head-twitch response: time-dependent head-twitch response

## CN(C)CCc1c[nH]c2cccc(OP(=O)(O)O)c12 [Psilocybin]
h5HT2a [2]; [11]
  Emax: -34 ± 5.9%
h5HT2a [2]; βarrestin2 recruitment, CHO-K1 h5HT2a, 0.1 nM-10 μM, 2 h, AUC
  pEC50 ± S.E.M.: Not Converged
h5HT2a [3]; Ca2+ release, CHO-K1 h5HT2a
  Emax: 69 ± 15%
h5HT2a [3]; Ca2+ release, CHO-K1 h5HT2a, 0.1 nM-10 μM, 1 min
  EC50: 1500 nM
h5HT2a [10]
  Ki: 390 nM
C57BL/6 mice [9]
  catalepsy: do not produce catalepsy
